Experimental data from US12371428B2 (Exelixis, Inc., priority 2019, dated 2025).
pIC50: −log10 of the molar value. Read-outs that look alike come from different tables or passages of the source.

Key:
[1] = target: Human Mer (residues R557-E882 with H628Q and R794A) (Homo sapiens, UniProt Q12866); assay: Human Mer kinase assay, 33P-phosphoryl transfer radiometric (Example C-1, KinaseProfiler); assay type: biochemical
Procedure: (§1) Kinase activity and compound inhibition were investigated using the ^33P-Phosphoryl transfer radiometric kinase assay, performed using the KinaseProfiler™ service of Eurofins Pharma Discovery Services UK Limited. Dose-response experiments were performed using nine compound concentrations in a 96-well microtiter plate. For each assay, all compounds were prepared to a 50× final assay concentration (50 μM) in 100% DMSO, then diluted in a half-log series, with the final top concentration at 1 μM. This working stock of the compound was added to the assay well as the first component in the reaction, followed by the remaining components as detailed in the following assay protocols below. The positive control wells (100% kinase activity) contain all components of the reaction including 2% DMSO (control for solvent effects), except the compound of interest. Blank wells contain all components of the reaction, with the reference inhibitor, staurosporine. This reference compound was used to abolish kinase activity and generated the 0% kinase activity base-line. IC50 values were calculated by nonlinear regression analysis using the sigmoidal dose-response (variable slope) curve fit on XLFit version 5.3 (ID Business Solutions).
Example C-1: Human Mer (residues R557-E882 with H628Q and R794A, 0.7 nM) was incubated with 8 mM MOPS pH 7.0, 0.2 mM EDTA, 30 mM NaCl, 250 μM […] (SEQ ID NO:2), 10 mM magnesium acetate, and 10 μM [γ-^33P-ATP]. The reaction was initiated by the addition of the Mg/ATP mix. After incubation for 40 minutes at room temperature, the reaction was stopped by the addition of phosphoric acid to a concentration of 0.5%. A reaction aliquot of 10 μL was then spotted onto a P30 filtermat and washed four times for 4 minutes in 0.425% phosphoric acid and once in methanol prior to drying and scintillation counting. Incorporated ^33P was measured using the Wallac Microbeta scintillation counter (Perkin Elmer).

[2] = target: Mer (phospho-Mer, MERTK-transfected 293A cells) (Homo sapiens (Human), UniProt Q12866); assay: Mer autophosphorylation ELISA in transient transfected 293A cells (Example H); assay type: cell-based; settings: cellular activity; Mer autophosphorylation ELISA in transient transfected 293A cells
Summary of the method: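 Human MERTK transiently transfected into 293A cells; compounds as 8-point dose curve in serum-free medium (0.3% DMSO final), 1 h. Lysates assayed by phospho-Mer sandwich ELISA against phospho-Mer standard; DMSO = 100%, reference inhibitor = 0% activity; IC50 from 4-parameter logistic fit.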

[3] = target: Human KDR (residues K790-V1356) (Homo sapiens (Human), UniProt P35968); assay: Human KDR kinase assay, 33P-phosphoryl transfer radiometric (Example B-1, KinaseProfiler); assay type: biochemical; settings: protocol of Example B-1 (compounds 21-27, 41-47, 99, 104)
Procedure: as §1
Example B-1: Human KDR (residues K790-V1356, 55 nM) was incubated with 8 mM MOPS pH 7.0, 0.2 mM EDTA, 0.33 mg/mL myelin basic protein, 10 mM magnesium acetate, and 10 μM [γ-^33P-ATP]. The reaction was initiated by the addition of the Mg/ATP mix. After incubation for 40 minutes at room temperature, the reaction was stopped by the addition of phosphoric acid to a concentration of 0.5%. A reaction aliquot of 10 μL was then spotted onto a P30 filtermat and washed four times for 4 minutes in 0.425% phosphoric acid and once in methanol prior to drying and scintillation counting. Incorporated ^33P was measured using the Wallac Microbeta scintillation counter (Perkin Elmer).

[4] = protocol of Example C-1 (compounds 21-27, 41-47, 99, 104)

Sequence of Mer (phospho-Mer, MERTK-transfected 293A cells) (Q12866 21-999): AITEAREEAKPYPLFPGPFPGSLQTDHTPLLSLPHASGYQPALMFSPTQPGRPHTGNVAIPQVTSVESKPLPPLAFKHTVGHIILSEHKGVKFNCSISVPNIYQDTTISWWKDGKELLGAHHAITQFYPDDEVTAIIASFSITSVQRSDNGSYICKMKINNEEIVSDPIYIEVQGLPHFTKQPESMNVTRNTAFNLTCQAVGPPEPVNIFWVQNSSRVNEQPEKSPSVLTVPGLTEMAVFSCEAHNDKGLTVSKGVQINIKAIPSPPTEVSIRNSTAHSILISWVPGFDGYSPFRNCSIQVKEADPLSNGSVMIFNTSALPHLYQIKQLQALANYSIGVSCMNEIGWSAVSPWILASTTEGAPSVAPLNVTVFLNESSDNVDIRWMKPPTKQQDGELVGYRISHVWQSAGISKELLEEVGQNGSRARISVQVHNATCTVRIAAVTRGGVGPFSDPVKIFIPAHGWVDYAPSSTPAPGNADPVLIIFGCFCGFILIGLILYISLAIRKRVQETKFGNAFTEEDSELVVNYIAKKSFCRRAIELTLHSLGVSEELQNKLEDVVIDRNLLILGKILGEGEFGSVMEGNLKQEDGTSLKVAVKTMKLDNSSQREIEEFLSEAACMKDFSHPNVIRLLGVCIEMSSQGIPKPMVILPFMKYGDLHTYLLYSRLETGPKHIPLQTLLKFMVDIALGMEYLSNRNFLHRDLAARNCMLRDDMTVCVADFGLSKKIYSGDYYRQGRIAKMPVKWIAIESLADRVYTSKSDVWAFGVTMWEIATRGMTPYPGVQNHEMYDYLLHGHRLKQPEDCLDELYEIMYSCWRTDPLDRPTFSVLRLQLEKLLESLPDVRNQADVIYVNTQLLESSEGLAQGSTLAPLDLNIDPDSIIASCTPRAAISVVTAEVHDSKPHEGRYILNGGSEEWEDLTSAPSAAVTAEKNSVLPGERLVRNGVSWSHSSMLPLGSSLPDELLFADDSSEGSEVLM
Sequence of Human Mer (residues R557-E882 with H628Q and R794A) (Q12866 21-999 limits assumed, stated change not applied): as the sequence (Q12866 21-999) above
Sequence of Human KDR (residues K790-V1356) (P35968 790-1356): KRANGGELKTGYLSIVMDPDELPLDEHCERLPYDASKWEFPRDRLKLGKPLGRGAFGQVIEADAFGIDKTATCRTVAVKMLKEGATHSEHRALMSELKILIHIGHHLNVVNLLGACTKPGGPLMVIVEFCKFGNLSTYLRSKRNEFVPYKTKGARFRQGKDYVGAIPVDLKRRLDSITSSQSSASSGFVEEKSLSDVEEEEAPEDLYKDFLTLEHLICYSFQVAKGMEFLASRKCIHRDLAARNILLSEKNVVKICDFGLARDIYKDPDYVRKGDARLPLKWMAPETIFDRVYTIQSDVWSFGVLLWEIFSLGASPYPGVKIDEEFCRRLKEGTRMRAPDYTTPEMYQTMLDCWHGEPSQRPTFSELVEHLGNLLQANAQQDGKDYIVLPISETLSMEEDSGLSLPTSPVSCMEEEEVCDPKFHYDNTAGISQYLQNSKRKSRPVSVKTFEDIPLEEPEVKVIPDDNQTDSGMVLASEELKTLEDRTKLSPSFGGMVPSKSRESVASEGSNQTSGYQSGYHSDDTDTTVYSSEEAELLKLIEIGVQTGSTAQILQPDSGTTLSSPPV

SMILES | pIC50 [1] | pIC50 [2] | pIC50 [3] | pIC50 [1, 4]
COc1cc2nccc(Oc3ccc(NC(=O)c4cncc(-c5ccc(F)cc5)c4O)cc3F)c2nc1OC [Compound 42, N-[4-[(6,7-Dimethoxy-1,5-naphthyridin-4-yl)oxy]-3-fluorophenyl]-5-(4-fluorophenyl)-4-hydroxypyridine-3-carboxamide] | – | > 7.00 | > 7.00 | > 7.00
COc1cc2nccc(Oc3ccc(NC(=O)c4cn(C(C)C)cc(-c5ccc(F)cc5)c4=O)cc3F)c2nc1OC [Compound 44, N-[4-[(6,7-Dimethoxy-1,5-naphthyridin-4-yl)oxy]-3-fluorophenyl]-5-(4-fluorophenyl)-4-oxo-1-propan-2-ylpyridine-3-carboxamide] | – | > 7.00 | > 7.00 | > 7.00
COc1cc2nccc(Oc3ccc(NC(=O)c4c[nH]c(=S)n(-c5ccc(F)cc5)c4=O)cc3F)c2nc1OC [Compound 104, N-[4-[(6,7-Dimethoxy-1,5-naphthyridin-4-yl)oxy]-3-fluorophenyl]-3-(4-fluorophenyl)-4-oxo-2-sulfanylidene-1H-pyrimidine-5-carboxamide] | – | > 7.00 | < 6.52 | < 6.52
CNc1ncc(C(=O)Nc2ccc(Oc3ccnc4cc(OC)c(OC)nc34)c(F)c2)c(=O)n1-c1ccc(F)cc1 [Compound 99, N-[4-[(6,7-Dimethoxy-1,5-naphthyridin-4-yl)oxy]-3-fluorophenyl]-1-(4-fluorophenyl)-2-(methylamino)-6-oxopyrimidine-5-carboxamide] | – | > 7.00 | > 7.00 | > 7.00
COc1cc2nccc(Oc3ccc(NC(=O)c4cn(C5CC5)cc(-c5ccc(F)cc5)c4=O)cc3F)c2nc1OC [Compound 41, 1-Cyclopropyl-N-[4-[(6,7-dimethoxy-1,5-naphthyridin-4-yl)oxy]-3-fluorophenyl]-5-(4-fluorophenyl)-4-oxopyridine-3-carboxamide] | – | > 7.00 | > 7.00 | > 7.00
COc1cc2nccc(Oc3ccc(NC(=O)c4cn(C(C)C)c(C)c(-c5ccc(F)c(Cl)c5)c4=O)cc3F)c2nc1OC [Compound 24, 5-(3-Chloro-4-fluorophenyl)-N-[4-[(6,7-dimethoxy-1,5-naphthyridin-4-yl)oxy]-3-fluorophenyl]-6-methyl-4-oxo-1-propan-2-ylpyridine-3-carboxamide] | – | > 7.00 | > 7.00 | > 7.00

Now from value to compound:

pIC50 [1] | pIC50 [2] | pIC50 [3] | pIC50 [1, 4] | SMILES
6.52 to 7.00 | > 7.00 | > 7.00 | – | COc1cc2nccc(Oc3ccc(NC(=O)c4cn(C(C)C)c(C)c(-c5ccc(Cl)c(Cl)c5)c4=O)cc3F)c2cc1OC [Compound 23, 5-(3,4-Dichlorophenyl)-N-[4-(6,7-dimethoxyquinolin-4-yl)oxy-3-fluorophenyl]-6-methyl-4-oxo-1-propan-2-ylpyridine-3-carboxamide]
– | > 7.00 | > 7.00 | > 7.00 | COc1cc2nccc(Oc3ccc(NC(=O)c4cn(C5COC5)cc(-c5ccc(F)cc5)c4=O)cc3F)c2nc1OC [Compound 47, N-[4-[(6,7-Dimethoxy-1,5-naphthyridin-4-yl)oxy]-3-fluorophenyl]-5-(4-fluorophenyl)-1-(oxetan-3-yl)-4-oxopyridine-3-carboxamide]
– | > 7.00 | > 7.00 | > 7.00 | COc1cc2nccc(Oc3ccc(NC(=O)c4cn(C(C)C)c(C)c(-c5ccc(F)cc5)c4=O)cc3F)c2cc1OC [Compound 22, N-[4-(6,7-Dimethoxyquinolin-4-yl)oxy-3-fluorophenyl]-5-(4-fluorophenyl)-6-methyl-4-oxo-1-propan-2-ylpyridine-3-carboxamide]
